Test results published in US20240108623A1, “METHODS OF TREATING CANCER WITH POZIOTINIB” (BOARD OF REGENTS, THE UNIVERSITY OF TEXAS SYSTEM, priority 2021, published 2024).

What was measured:
[1] = system: PDXs with G719A mutations; assay: PDX tumor growth; type: in vivo, mice; details: 2.5 mg/kg poziotinib; 5 mg/kg and 20 mg/kg osimertinib; five days per week, day 28
[2] = system: lung adenocarcinomas harboring EGFR L858R mutations, acquired L718V mutation; assay: Case study of patient treated with second-generation TKI; type: in vivo, human; details: acquired L718V after first-line osimertinib
Text: Case studies of patients treated with second-generation TKIs. Patients were consented under the GEMINI protocol (PA13-0589) which was approved in accordance with the MD Anderson Institutional Review Board.

[3] = system: exon 20 loop insertion mutations; assay: Ba/F3 drug screening, mutant/WT IC50 by class of EGFR TKI; type: cell-based; details: Ba/F3 cells expressing exon 20 loop insertion mutations
Procedure: Ba/F3 cell generation, drug screening, and IC50 approximations. Ba/F3 cells were obtained as a gift from Dr. Gordon Mills (MD Anderson Cancer Center), and maintained in RPMI (Sigma) containing 10% FBS, 1% penicillin/streptomycin, and 10 ng/ml recombinant mIL-3 (R&D Biosystems). To establish stable Ba/F3 cell lines, Ba/F3 cells were transduced with retroviruses containing mutant EGFR plasmids for 12-24 hours. Retroviruses were generated using Lipofectamine 2000 (Invitrogen) transfections of Phoenix 293T-ampho cells (Orbigen) with pBabe-Puro based vectors listed below in Table 6. Vectors were generated by GeneScript or Bioinnovatise using parental vectors from Addgene listed below in Table 6.
After 48-72 hours of transduction, 2 μg/ml puromycin (Invitrogen) was added to Ba/F3 cell lines in complete RPMI. To select for EGFR positive cell lines, cells were stained with PE-EGFR (Biolegend) and sorted by FACS. […] Plates were incubated for a minimum of 10 minutes, and bioluminescence was determined using a FLUOstar OPTIMA plate reader (BMG LABTECH). […] Statistical differences between groups were determined by ANOVA as described in the figure legends.
Heatmap generation and spearman correlations of groups. […] Hierarchical clustering was determined by Euclidean distance between Mut/WT ratios. […]

## C=CC(=O)N1CCC(Oc2cc3c(Nc4ccc(Cl)c(Cl)c4F)ncnc3cc2OC)CC1 [Poziotinib]
[1]
  sensitivity of mice harboring PDXs with G719A mutations: most sensitive
[2]
  clinical outcome of patient: clinical benefit of stable disease and tumor shrinkage
[3]
  sensitivity of Ex20ins mutations in vitro: sensitive
